Source: patent publication US10160762B2, “6-alkyl dihydropyrazolopyrimidinone compounds as PDE2 inhibitors” (Merck Sharp & Dohme Corp., priority 2015, dated 2018)
Where two headings read alike, the source gives them in different places.

Target: T1, human PDE2A1 (Homo sapiens, UniProt O00408)
T1 construct: GST; purchased BPS Bioscience (San Diego, Calif.) 60020; host or cells: insect cells
Test: IMAP FP PDE assay, human PDE2A1
Assay type: biochemical
Method in brief: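 GST-tagged human PDE2A1 from insect cells; substrate 50 nM FAM-cAMP containing 1000 nM cGMP in Tris pH 7.2/MgCl2/DTT buffer, enzyme giving 20% conversion. 60 min at room temperature, IMAP binding reagent, fluorescence polarization read. Apparent Ki from FP readings using apparent KM 10,000 nM; ten-point 3-fold titrations.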

[1] = Lab B, read-out: Human PDE2 Ki (nM) Lab B

T1 sequence (O00408 1-920 isoform O00408-2): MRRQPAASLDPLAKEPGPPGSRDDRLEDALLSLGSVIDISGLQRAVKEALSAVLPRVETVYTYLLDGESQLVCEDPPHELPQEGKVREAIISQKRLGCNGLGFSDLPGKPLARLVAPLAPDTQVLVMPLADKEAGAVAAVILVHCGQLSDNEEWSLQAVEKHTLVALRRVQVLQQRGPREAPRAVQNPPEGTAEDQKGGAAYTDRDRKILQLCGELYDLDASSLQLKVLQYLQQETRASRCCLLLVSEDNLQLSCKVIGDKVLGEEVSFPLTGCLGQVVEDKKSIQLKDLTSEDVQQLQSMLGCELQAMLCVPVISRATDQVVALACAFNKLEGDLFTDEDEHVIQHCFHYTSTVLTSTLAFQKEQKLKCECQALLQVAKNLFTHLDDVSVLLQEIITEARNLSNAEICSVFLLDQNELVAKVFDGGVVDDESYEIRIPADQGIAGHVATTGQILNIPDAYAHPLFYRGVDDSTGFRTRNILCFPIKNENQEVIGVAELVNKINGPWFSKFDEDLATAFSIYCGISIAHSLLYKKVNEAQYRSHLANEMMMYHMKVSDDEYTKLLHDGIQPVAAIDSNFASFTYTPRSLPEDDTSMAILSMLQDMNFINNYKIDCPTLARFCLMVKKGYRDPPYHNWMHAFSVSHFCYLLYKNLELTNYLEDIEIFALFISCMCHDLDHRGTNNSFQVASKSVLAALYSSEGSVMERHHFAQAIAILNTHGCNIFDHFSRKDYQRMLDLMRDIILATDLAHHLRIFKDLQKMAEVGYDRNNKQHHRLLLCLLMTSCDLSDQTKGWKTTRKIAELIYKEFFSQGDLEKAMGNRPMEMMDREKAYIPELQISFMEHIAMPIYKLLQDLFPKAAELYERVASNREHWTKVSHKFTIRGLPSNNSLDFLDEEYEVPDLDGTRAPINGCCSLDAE

Compound | Ki [1] | Ki (Lab A, read-out: Human PDE2 Ki (nM) Lab A)
Cc1nc2c(c(C(=O)NCC(F)(F)F)nn2C(C)c2ccc(C(F)(F)F)cc2)c(=O)[nH]1 (single isomer, unassigned) [Example 268, (R)- or (S)-6-Methyl-4-oxo-N-(2,2,2-trifluoroethyl)-1-(1-(4-(trifluoromethyl)phenyl)ethyl)-4,5-dihydro-1H-pyrazolo[3,4-d]pyrimidine-3-carboxamide] | 311 nM | –
Cc1nc2c(c(C(F)F)nn2C(C)c2ccc(SC(F)(F)F)cc2)c(=O)[nH]1 (single isomer, unassigned) [Example 180, (S)- or (R)-3-(Difluoromethyl)-6-methyl-1-(1-(4-(trifluoromethylthio)phenyl)ethyl)-1H-pyrazolo[3,4-d] pyrimidin-4(5H)-one] | 0.55 nM | –
CC(c1ccc(C(F)(F)F)cc1)n1nc(C(F)F)c2c(=O)[nH]c(C3CC3)nc21 (single isomer, unassigned) [Example 191, (R)- or (S)-6-Cyclopropyl-3-(difluoromethyl)-1-(1-(4-(trifluoromethyl)phenyl)ethyl)-1,5-dihydro-4H-pyrazolo[3,4-d]pyrimidin-4-one] | 268 nM | –
Cc1nc2c(c(CC(F)(F)F)nn2C(C)c2ccc(OC(F)(F)F)cc2)c(=O)[nH]1 (single isomer, unassigned) [Example 67, (S)- or (R)-6-Methyl-3-(2,2,2-trifluoroethyl)-1-(1-(4-(trifluoromethoxy)phenyl)ethyl)-1H-pyrazolo[3,4-d]pyrimidin-4(5H)-one] | 6.7 nM | –
Cc1nc2c(c(N)nn2C(C)c2ccc(C(F)(F)F)cc2)c(=O)[nH]1 (stereo not shown) [Example 258, 3-Amino-6-methyl-1-(1-(4-(trifluoromethyl)phenyl)ethyl)-H-pyrazolo[3,4-d]pyrimidin-4(5H)-one] | 42 nM | –
Cc1nc2c(c(-c3nnco3)nn2C(C)c2ccc(C(F)(F)F)cc2)c(=O)[nH]1 (single isomer, unassigned) [Example 262] | 395 nM | –
Cc1nc2c(c(CO)nn2C(C)c2ccc(C(F)(F)F)c(I)c2)c(=O)[nH]1 (single isomer, unassigned) [Example 138, (R)- or (S)-3-(Hydroxymethyl)-1-(1-(3-iodo-4-(trifluoromethyl-)phenyl)ethyl)-6-methyl-1,5-dihydro-4H-pyrazolo[3,4-d]pyrimidin-4-one] | > 2960 nM | –
Cc1nc2c(c(C(F)(F)CO)nn2C(C)c2ccc(C(F)(F)F)cc2)c(=O)[nH]1 (single isomer, unassigned) [Example 254] | 452 nM | –
Cc1nc2c(c(CO)nn2C(C)c2ccc(S(F)(F)(F)(F)F)cc2F)c(=O)[nH]1 (single isomer, unassigned) [Example 120] | 496 nM | –
Cc1nc2c(c(CO)nn2C(C)c2ccc(C(F)(F)F)cc2F)c(=O)[nH]1 (single isomer, unassigned) [Example 16, (R)- or (S)-1-(1-(2-Fluoro-4-(trifluoromethyl)phenyl)ethyl)-3-(hydroxymethyl)-6-methyl-1H-pyrazolo[3,4-d]pyrimidin-4(5H)-one] | 81 nM | –
COCC(c1ccc(C(F)(F)F)cc1)n1nc(C(F)F)c2c(=O)[nH]c(C)nc21 (single isomer, unassigned) [Example 173, (R)- or (S)-3-(Difluoromethyl)-1-(2-methoxy-1-(4-(trifluoromethyl)phenyl)ethyl)-6-methyl-1H-pyrazolo[3,4-d]pyrimidin-4(5H)-one] | 4.6 nM | –
CC(=O)c1ccc(C(C)n2nc(CO)c3c(=O)[nH]c(C)nc32)cc1 (single isomer, unassigned) [Example 291] | 104 nM | –
CC(c1ccc(C(F)(F)F)cc1)n1nc(C#N)c2c(=O)[nH]c(CC3CCCC3)nc21 (single isomer, unassigned) [Example 351] | 1010 nM | –
Cc1nc2c(c(CO)nn2C2(c3ccc(C(F)(F)F)cc3)CC2)c(=O)[nH]1 [Example 142, 3-(Hydroxymethyl)-6-methyl-1-(1-(4-(trifluoromethyl)phenyl)cyclopropyl)-1H-pyrazolo[3,4-d]pyrimidin-4(5H)-one] | 8.2 nM | –
COc1ccc(Cc2nc3c(c(CO)nn3C(C)c3ccc(C(F)(F)F)cc3)c(=O)[nH]2)cc1OC (racemic) [Example 297, 6-(3,4-Dimethoxybenzyl)-3-(hydroxymethyl)-1-{1-[4-(trifluoromethyl)phenyl]ethyl}-1,5-dihydro-4H-pyrazolo[3,4-d]pyrimidin-4-one] | – | 0.72 nM
Cc1nc2c(c(CO)nn2C(C)c2ccc(C(F)(F)F)nc2)c(=O)[nH]1 (single isomer, unassigned) [Example 130, (R)- or (S)-3-(Hydroxymethyl)-6-methyl-1-(1-(6-(trifluoromethyl)pyridin-3-yl)ethyl)-1H-pyrazolo[3,4-d]pyrimidin-4(5H)-one] | ≥ 2960 nM | –
COCc1nc2c(c(CO)nn2C(C)c2ccc(S(F)(F)(F)(F)F)cc2)c(=O)[nH]1 (single isomer, unassigned) [Example 317, (R)- or (S)-3-(Hydroxy-methyl)-6-(methoxy-methyl)-1-{1-[4-(pentafluoro-sulfanyl)-phenyl]ethyl}-1,5-dihydro-4H-pyrazolo[3,4-d]pyrimidin-4-one] | 150 nM | –

Compound | Ki [1] | Ki (Lab A, read-out: Human PDE2 Ki (nM) Lab A)
Cc1nc2c(c(CO)nn2C2CCc3cc(C(F)(F)F)ccc32)c(=O)[nH]1 (single isomer, unassigned) [Example 102, (R)- or (S)-3-(Hydroxymethyl)-6-methyl-1-(5-(trifluoromethyl)-2,3-dihydro-1H-inden-1-yl)-1H-pyrazolo[3,4-d]pyrimidin-4(5H)-one] | > 2960 nM | –
Cc1nc2c(c(C(N)=O)nn2C(C)c2ccc(C(F)(F)F)cc2)c(=O)[nH]1 (single isomer, unassigned) [Example 257] | 115 nM | –
Cc1nc2c(c(CC(F)(F)F)nn2C(c2ccc(C(F)(F)F)c(F)c2)C(C)(C)C)c(=O)[nH]1 (single isomer, unassigned) [Example 61, (S)- or (R)-1-(1-(3-Fluoro-4-(trifluoromethyl)phenyl)-2,2-dimethylpropyl)-6-methyl-3-(2,2,2-trifluoroethyl)-1H-pyrazolo[3,4-d]pyrimidin-4(5H)-one] | 55 nM | –
Cc1nc2c(c(CO)nn2C(C)c2ccc(C(F)(F)F)nc2)c(=O)[nH]1 (single isomer, unassigned) [Example 131, (S)- or (R)-3-(Hydroxymethyl)-6-methyl-1-(1-(6-(trifluoro-methyl)pyridin-3-yl)ethyl)-1H-pyrazolo[3,4-d]pyrimidin-4(5H)-one] | 57 nM | –
Cc1nc2c(c(OCC(F)(F)F)nn2C(C)c2ccc(C(F)(F)F)cc2)c(=O)[nH]1 (single isomer, unassigned) [Example 288] | 350 nM | –
CC(c1ccc(C(F)(F)F)cc1)n1nc(CO)c2c(=O)[nH]c(CC3CC3)nc21 (single isomer, unassigned) [Example 309, (R)- or (S)-6-(Cyclopropyl-methyl)-3-(hydroxymethyl)-1-(1-(4-(trifluoromethyl)phenyl)ethyl)-1,5-dihydro-4H-pyrazolo[3,4-d]pyrimidin-4-one] | 420 nM | –
CC(=O)Nc1nn(C(C)c2ccc(C(F)(F)F)cc2)c2nc(C)[nH]c(=O)c12 (single isomer, unassigned) [Example 260] | 54 nM | –
Cc1nc2c(c(CO)nn2C(C)c2ccc(OC(F)F)cc2)c(=O)[nH]1 (single isomer, unassigned) [Example 20, (R)- or (S)-1-(1-(4-(Difluoromethoxy)phenyl)ethyl)-3-(hydroxymethyl)-6-methyl-1H-pyrazolo[3,4-d]pyrimidin-4(5H)-one] | 305 nM | –
CCC(c1ccc(OC(F)(F)F)cc1)n1nc(CO)c2c(=O)[nH]c(C)nc21 (single isomer, unassigned) [Example 134, (R)- or (S)-3-(Hydroxymethyl)-6-methyl-1-(1-(4-(trifluoro-methoxy)phenyl)propyl)-1H-pyrazolo[3,4-d]pyrimidin-4(5H)-one] | 51 nM | –
Cc1nc2c(c(CO)nn2C(C)c2ccc(SC(F)(F)F)cc2)c(=O)[nH]1 (single isomer, unassigned) [Example 22, (R)- or (S)-3-(Hydroxymethyl)-6-methyl-1-(1-(4-(trifluoromethylthio)phenyl)ethyl)-1H-pyrazolo[3,4-d]pyrimidin-4(5H)-one] | 125 nM | –
Cc1nc2c(c(CO)nn2C(C)c2ccc(C3(C(F)(F)F)CC3)cc2)c(=O)[nH]1 (single isomer, unassigned) [Example 80] | 624 nM | –
CCc1nc2c(c(C(F)F)nn2C(C)c2ccc(C(F)(F)F)cc2)c(=O)[nH]1 (single isomer, unassigned) [Example 190, (S)- or (R)-3-(Difluoromethyl)-6-ethyl-1-(1-(4-(trifluoromethyl)-phenyl)ethyl)-1,5-dihydro-4H-pyrazolo[3,4-d]pyrimidin-4-one] | 2.7 nM | –
Cc1nc2c(c(C(F)F)nn2C(c2ccc(C(F)(F)F)cc2)C(C)C)c(=O)[nH]1 (single isomer, unassigned) [Example 172, (S)- or (R)-3-(Difluoromethyl)-6-methyl-1-(2-methyl-1-(4-(trifluoromethyl)phenyl)propyl)-1H-pyrazolo[3,4-d] pyrimidin-4(5H)-one] | 0.31 nM | –
Cc1nc2c(c(CC(O)C(F)(F)F)nn2C(C)c2ccc(C(F)(F)F)cc2)c(=O)[nH]1 (single isomer, unassigned) [Example 241] | 610 nM | –
Cc1nc2c(c(CC(F)(F)F)nn2C(c2ccc(C(F)(F)F)c(F)c2)C2(C)CC2)c(=O)[nH]1 (single isomer, unassigned) [Example 63, (S)- or (R)-1-((3-Fluoro-4-(trifluoromethyl)phenyl)(1-methylcyclopropyl)methyl)-6-methyl-3-(2,2,2-trifluoroethyl)-1H-pyrazolo[3,4-d]pyrimidin-4(5H)-one] | 45 nM | –
Cc1nc2c(c(CO)nn2C(C)c2c(F)cc(C(F)(F)F)cc2F)c(=O)[nH]1 (single isomer, unassigned) [Example 137] | 121 nM | –
Cc1nc2c(c(CO)nn2C(C)c2ccc(C3(C(F)(F)F)CC3)cc2)c(=O)[nH]1 (single isomer, unassigned) [Example 81] | 7.7 nM | –
